In data set [1] the test system is Staphyloccoccus aureus methicillin-resistant (S. aureus Meth-R). Kind of data set: Minimum inhibitory concentration, agar dilution, methicillin-resistant Staphylococcus aureus. The class given is cell-based. The settings on record: one isolate per line, 10^4 cfu/spot, trypticase soy agar, 24 hours at 35° C. As to the method:
(§1) The free acid of the compound of formula I was prepared as aqueous solutions at a concentration of 1.28 mg/ml. Comparative agents vancomycin and streptomycin were prepared at 1.28 mg/ml in Sorensens' buffer, pH 7.
(§2) Each of the drugs was serially diluted twofold in 20×100 mm sterile petri dishes with the aid of a Pipetman. To each plate containing 1 ml of the antibiotic dilution was added 9 ml molten trypticase soy agar (TSA) (BBL) to yield final drug concentrations ranging from 128-0.031 mcg/ml. Plates were swirled to mix, allowed to solidify at room temperature and were stored overnight at 5° C.
(§3) Cultures were grown in trypticase soy broth (TSB) for 16 hours at 35° C. They were diluted 1-100 in TSB to obtain an inoculum of 10^4 cfu/spot when plated using a Denley multipoint inoculator calibrated to deliver 0.0015 ml. Inoculated plates were incubated for 24 hours at 35° C.
(§4) The minimum inhibitory concentration (MIC) was defined as the lowest concentration that allowed no growth or a barely visible haze.

For another data set, the system named is S. arueus. As to the kind of experiment: Minimum inhibitory concentration, agar dilution, S. aureus. As to conditions: Staphylococcus aureus, 24 h. It counts as cell-based. The protocol: as §1, §2, §3, §4
Data set [2] in a line: Stability of the free acid to concentration. The class given is physicochemical. As to conditions: on concentration of solutions. The protocol: (d) Due to the instability of the free acid of the compound of formula I to concentration, an alternate method was used to provide concentrated solutions. LH20 fractions 13-25 from Step C, 3250 ml, was extracted with 500 ml of 0.1M potassium phosphate buffer pH 7.2. The compound was extracted into the aqueous layer, 620 ml, which was reextracted with 200 ml of methylene chloride at pH 4.5. The methylene chloride extract was dried over anhydrous sodium sulfate. The extraction volumes could be adjusted to provide varying concentrations of the free acid of the compound of formula I in methylene chloride.

The subject of the next data set is Streptococcus faecalis. As to the kind of experiment: Minimum inhibitory concentration, agar dilution, Streptococcus faecalis. The class given is cell-based. The settings on record: Enterococcus faecalis, 24 h, one isolate per line, 10^4 cfu/spot, trypticase soy agar, 24 hours at 35° C. The protocol:
as §1, §2, §3, §4

Values after ≈ are worked out from the molar mass of the structure shown. Where only a bound is given, the exact number is not on record here.

`C#CC#CC#CC(O)C1OC(=O)OC1CCCCCCC(=O)O` (stereo not drawn) [Free Acid of the Compound of Formula I, 5-(1-hydroxy-2,4,6-heptatriynyl)-2-oxo-1,3 dioxolane]: the MIC in data set [1] stood at 0.5 µg/mL; against S. arueus it was 1 µg/mL. In addition, the “instability of the free acid to concentration” value in data set [2] is given as “instability”.
Take `[H]/N=C(/N)N[C@H]1[C@H](O)[C@@H](O)[C@H](O[C@@H]2O[C@@H](C)[C@](O)(C=O)[C@H]2O[C@@H]2O[C@@H](CO)[C@H](O)[C@@H](O)[C@@H]2NC)[C@@H](N/C(N)=N\[H])[C@@H]1O` [Streptomycin]: the minimal inhibitory concentration (MIC) against Streptococcus faecalis is > 128 µg/mL; against S. arueus, 116 µg/mL (≈ 199 µM).
The molecule `CN[C@H](CC(C)C)C(=O)N[C@H]1C(=O)N[C@@H](CC(N)=O)C(=O)N[C@H]2C(=O)N[C@H]3C(=O)N[C@H](C(=O)N[C@H](C(=O)O)c4cc(O)cc(O)c4-c4cc3ccc4O)[C@H](O)c3ccc(c(Cl)c3)Oc3cc2cc(c3O[C@@H]2O[C@H](CO)[C@@H](O)[C@H](O)[C@H]2O[C@H]2C[C@](C)(N)[C@H](O)[C@H](C)O2)Oc2ccc(cc2Cl)[C@H]1O` [Vancomycin] showed an MIC with Streptococcus faecalis of 4 µg/mL (≈ 2.76 µM).

The values are drawn from patent US4806566A, “Anti-gram positive bacteria tri-yne carbonates” (Merck & Co., Inc., priority 1987, dated 1989).
